Data reported in the supplement of paper PMC10307832.

Columns and labels:
Test in all cases: relative viability (nuclei count vs DMSO), 5 days (fraction); higher = more cells survive
[1] = compound: CCN(CCO)CCCC(C)Nc1ccnc2cc(Cl)ccc12 [Hydroxychloroquine] + COc1cccc2cc(-c3nc([C@H]4CC[C@H](C(=O)O)CC4)n4ncnc(N)c34)[nH]c12 [OSI-027] (partner 0.5 µM)
How it was run: (§1)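 Cells from lung cancer lines were seeded into 1536-well plates and, one day later, dosed by pin tool. Treatments were either a single drug or a fixed dose of an anchor drug with five library-drug doses (not always all listed) in √10 steps. After 5 days, nuclei were stained in a one-step fixation (final 0.05% Triton X-100, 1% formaldehyde, 1 ug/ml Hoechst) and counted on 4× images, and relative viability is the treated-to-vehicle nuclei ratio, as the median of duplicate plates.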

[2] = compound: CCN(CCO)CCCC(C)Nc1ccnc2cc(Cl)ccc12 [Hydroxychloroquine] + CS(=O)(=O)N1CCN(Cc2cc3nc(-c4cccc5[nH]ncc45)nc(N4CCOCC4)c3s2)CC1 [Pictilisib] (partner 1 µM)
How it was run: as §1

[3] = compound: CCN(CCO)CCCC(C)Nc1ccnc2cc(Cl)ccc12 [Hydroxychloroquine] + CC(=O)c1c(C)c2cnc(Nc3ccc(N4CCNCC4)cn3)nc2n(C2CCCC2)c1=O [Palbociclib] (partner 0.5 µM)
How it was run: as §1

[4] = compound: CCN(CCO)CCCC(C)Nc1ccnc2cc(Cl)ccc12 [Hydroxychloroquine] + CCNC(=O)c1noc(-c2cc(C(C)C)c(O)cc2O)c1-c1ccc(CN2CCOCC2)cc1 [Luminespib] (partner 0.01 µM)
How it was run: as §1

Cell Line	relative viability ([1]; first compound 0.5 µM)	relative viability ([1]; first compound 1.581 µM)	relative viability ([1]; first compound 5 µM)	relative viability ([1]; first compound 15.81 µM)	relative viability ([1]; first compound 50 µM)	relative viability ([2]; first compound 0.5 µM)	relative viability ([2]; first compound 1.581 µM)	relative viability ([2]; first compound 5 µM)	relative viability ([2]; first compound 15.81 µM)	relative viability ([2]; first compound 50 µM)	relative viability ([3]; first compound 0.5 µM)	relative viability ([3]; first compound 1.581 µM)	relative viability ([3]; first compound 5 µM)	relative viability ([3]; first compound 15.81 µM)	relative viability ([3]; first compound 50 µM)	relative viability ([4]; first compound 0.5 µM)	relative viability ([4]; first compound 1.581 µM)	relative viability ([4]; first compound 5 µM)	relative viability ([4]; first compound 15.81 µM)	relative viability ([4]; first compound 50 µM)
NCI-H661	0.668	0.52	0.629	0.583	0.697	0.472	0.413	0.406	0.384	0.358	0.404	0.364	0.413	0.377	0.403	1.02	0.926	0.85	0.915	0.922
LCLC-103H	0.482	0.488	0.547	0.465	0.562	0.666	0.612	0.567	0.542	0.67	0.498	0.496	0.524	0.461	0.469	0.983	0.921	1.05	1.11	1.1
LOU-NH91	0.667	0.616	0.758	0.701	0.736	0.531	0.488	0.567	0.509	0.488	0.534	0.562	0.5	0.55	0.531	0.369	0.313	0.307	0.345	0.371
NCI-H1650	0.653	0.729	0.634	0.562	0.577	0.558	0.578	0.49	0.542	0.599	0.291	0.341	0.317	0.323	0.355	0.178	0.173	0.203	0.227	0.193
NCI-H3122	1.05	0.962	1.12	1.2	1.18	0.658	0.574	0.619	0.58	0.576	0.208	0.193	0.194	0.234	0.21	0.11	0.0839	0.104	0.109	0.0905
RERF-LC-KJ	0.587	0.5	0.537	0.631	0.609	0.43	0.518	0.55	0.488	0.603	0.838	1.16	1.03	1.12	1.06	1.08	1.22	1.31	1.14	1.1
NCI-H1651	0.659	0.69	0.677	0.786	0.781	0.6	0.663	0.561	0.574	0.592	0.536	0.5	0.517	0.567	0.54	0.843	0.817	0.89	0.739	0.963
NCI-H2087	0.584	0.375	0.529	0.672	0.78	0.891	0.879	0.798	0.919	0.721	0.189	0.227	0.231	0.189	0.213	0.187	0.195	0.175	0.19	0.329
